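Assay format: 96-well plates, 48-hour exposure. At the TGI there is no net growth.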
Legend:
Assay in all cases: inhibition of tumour cell growth, NCI panel, 48 h
MDA-MB-435 = tested on: MDA-MB-435
M14 melanoma = tested on: M14 melanoma
UACC-62 melanoma = tested on: UACC-62 melanoma
MCF7 breast = tested on: MCF7 breast
HS 578T breast = tested on: HS 578T breast
SNB-75 CNS = tested on: SNB-75 CNS
K-562 leukemia = tested on: K-562 leukemia
ACHN renal = tested on: ACHN renal
SN12C renal = tested on: SN12C renal
HL-60(TB) leukemia = tested on: HL-60(TB) leukemia

SMILES	TGI (MDA-MB-435) [µM]	TGI (M14 melanoma) [µM]	TGI (UACC-62 melanoma) [µM]	TGI (MCF7 breast) [µM]	TGI (HS 578T breast) [µM]	TGI (SNB-75 CNS) [µM]	TGI (K-562 leukemia) [µM]	TGI (ACHN renal) [µM]	TGI (SN12C renal) [µM]	TGI (HL-60(TB) leukemia) [µM]
c1ccc2c(c1)Cn1c-2nc2ccccc21	> 100	> 100	> 100	> 100	> 100	73.3	> 100	> 100	> 100	> 100
COP(=O)(OC)C1=c2c(C)noc2=C2C=COC2C1=O (stereo unspecified)	> 100	> 100	> 100	> 100	> 100	> 100	> 100	> 100	> 100	> 100
CC(C)c1cc2c(cc1S(=O)(=O)O)[C@@]1(C)CCC[C@@](C)(C(=O)O)C1CC2 (stereo partly specified)	> 100	> 100	> 100	> 100	> 100	> 100	> 100	> 100	> 100	> 100
CCC(=O)NCC1CCCN2CCCCC12 (stereo unspecified)	> 100		> 100	> 100	> 100	> 100	> 100	> 100	> 100	> 100
[N-]=[N+]=NC(c1ccccc1)(c1ccccc1)c1ccccc1	44	35.5	31.4	35.7	51.8	34.4	42.5	29.1	30.9	39.4
CC(=O)c1c2c(c3ccccc3c1O)O[C@@H]1OCC[C@H]21	> 100	> 100	> 100	> 100	> 100	34.2	> 100	> 100	> 100	> 100
O=C(C1OC1c1ccc(Br)cc1O)C12CC3CC(CC(C3)C1)C2 (stereo unspecified)	30.4	38.6	40.6	> 100	47.8	58.1	44.8	> 100	30.1	40.9
COC(=O)C1CC(C=[N+](C)C)=C(SC)N1C(=O)OCc1ccccc1 (stereo unspecified)	> 100	> 100	> 100	> 100	> 100	> 100	> 100	> 100		
CC(=O)Oc1cccc2c1C(=O)CCCC2	> 100	> 100	> 100	> 100	> 100	4.78	> 100	> 100	> 100	> 100
CC1=Nc2ccccc2OC(C)=C1N=Nc1ccc2nc(C)[nH]c2c1	> 100	> 100	> 100	> 100		> 100	> 100	> 100	> 100	> 100
Nn1c(-c2ccccc2)n[nH]c1=O	> 100	> 100	> 100	> 100	> 100	> 100		> 100	> 100	> 100
Cc1ccccc1OC(C)C(=O)NN1C(=O)CSC1c1ccccc1 (stereo unspecified)	> 100	> 100	> 100	> 100	> 100	> 100	> 100	> 100	> 100	
COc1ccc(N=NC(=Nc2ccccc2)c2ccc(N(CCC#N)CCC#N)cc2)cc1	> 100	> 100	> 100	73	> 100	> 100	> 100	> 100	> 100	
CC(=O)Nn1c(=S)[nH]c2ccccc21	> 100	> 100	> 100	> 100	> 100		> 100	> 100	> 100	> 100
NS(=O)(=O)c1nnc(NC(=O)Nc2ccc(Cl)c(Cl)c2)s1	50	32.3	31.2	88.3	75.9		> 100	> 100	39.7	> 100
CC(C)=CCC[C@@H](C)c1c(O)c(O)c(C)c2nccnc12	> 100	> 100	50.5	> 100	> 80.2	> 100	> 66.6	45.2	> 100	
O=C(/C=C/c1ccc2c(c1)OCO2)Cc1nc2ncccc2[nH]c1=O	> 100	> 100	> 100	> 100	> 100		> 100	> 100	> 100	> 100
Nc1c(-c2ccc(Cl)c(Cl)c2)c2ccc([N+](=O)[O-])cc2c(=O)n1-c1nc2ccccc2s1	> 100	> 36.1	> 100	21.1		8.23	> 100	20.6	12.3	
C=CC1(CC/C(=C\[N+](=O)[O-])c2ccc(OC)c(OC)c2)OCC(C)(C)CO1	56.3	39.6	29.4	> 100	79.4		> 100	37.9	47.6	34.1
CC1=C(Cl)C=CP(=O)(Oc2ccccc2)C1 (stereo unspecified)		38.2	> 100				> 10	> 100		> 10
Oc1ccc2c(c1)c1c(n2CCN2CCOCC2)-c2ccccc2CC1		57.3	48.1	> 100	56.9	76.3	> 100	> 100	95.9	> 100
Cc1ccc(NC(=O)CC2Sc3ccccc3NC2=O)cc1C (stereo unspecified)		> 100	> 100			> 100	> 100	> 100	> 100	66.1
CCOP(=O)(OCC)C(F)(F)c1ccc(CC(NC(=O)OC(C)(C)C)C(=O)O)cc1 (stereo unspecified)	> 10	> 10	> 10	> 10	> 10	> 10	> 10	> 10	> 10	

From PubChem BioAssay (NCI)
